In assay [1] the test system is A549 cells (KRAS G12S mutant). The experiment in a line: Cell proliferation inhibition experiment, 3D spheroid, CellTiter-Glo, A549. It counts as cell-based, human. The note with it: Homo sapiens, A549, 120 h, A549 (KRAS G12S mutant) 3D spheroid, 5 days with compound, CellTiter-Glo; read-out: A549 IC50. The procedure, abridged: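 Cells seeded in 2% FBS medium in spheroid plates (800 H358 or 400 A549 per well), grown overnight to form 3D spheroids, then exposed to 3.16-fold compound dilutions (0.1% DMSO) for 5 days. CellTiter-Glo luminescence gave inhibition vs DMSO and medium blanks; IC50 by four-parameter fit.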
(In general: In ATP-based viability assays light output follows the ATP content of the culture.)

The subject of assay [2] is KRAS G12C mutant MIA PaCa-2 cells. In words: Cell proliferation inhibition experiment, 3D spheroid, CellTiter-Glo, MIA PaCa-2. The assay is classed as cell-based, human. Particulars: Homo sapiens, MIA PaCa-2, 120 h, 3D cell model in 384-well spheroid plate, 5 days, CellTiter-Glo; read-out: MIA-PaCa2 IC50. The procedure, abridged:
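200 MIA PaCa-2 cells/well grown overnight as 3D spheroids, then exposed to 3.16-fold compound dilutions (0.1% DMSO final) for 5 days. Viability read by CellTiter-Glo luminescence; inhibition calculated against DMSO and medium-only controls, and IC50 fitted by four-parameter model.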

On to `C=CC(=O)N1CCN2C(=O)c3c(N4CCN(C(=O)C5CC5)C[C@@H]4C)nc(-c4c(O)cccc4F)c(Cl)c3OC[C@H]2C1` [Z320-1, (6aR)-8-acryloyl-4-chloro-1-((S)-4-(cyclopropanecarbonyl)-2-methylpiperazin-1-yl)-3-(2-fluoro-6-hydroxyphenyl)-6,6a,7,8,9,10-hexahydro-12H-pyrazino[2,1-c]pyrido[3,4-f][1,4]oxazepin-12-one], for which the IC50 – broadly, the concentration needed to halve the response being measured – in assay [1] was 8.92 µM; in assay [2], 0.0017 µM.

As for `C=CC(=O)N1CCN2C(=O)c3c(N4C[C@H](O)CC4(C)C)nc(-c4c(O)ccc(Cl)c4F)c(F)c3OC[C@H]2C1` (single isomer, unassigned) [Z340-2], the IC50 in assay [1] stood at 3.17 µM; in assay [2], 0.074 µM.

With `C=CC(=O)N1CCN2C(=O)c3c(N4CC(=O)N(CC)C[C@@H]4C)nc(-c4c(O)cccc4F)c(Cl)c3OC[C@H]2C1` [Z319-1, (6aR)-8-acryloyl-4-chloro-1-((S)-4-ethyl-2-methyl-5-oxopiperazin-1-yl)-3-(2-fluoro-6-hydroxyphenyl)-6,6a,7,8,9,10-hexahydro-12H-pyrazino[2,1-c]pyrido[3,4-f][1,4]oxazepin-12-one], in assay [1], the IC50 is above 30 µM. In the case of `C=CC(=O)N1CCN2C(=O)c3c(N4CCN(CCOC)C(C)(C)C4)nc(-c4c(O)cccc4F)c(Cl)c3OC[C@H]2C1` [Z321, (6aR)-8-acryloyl-4-chloro-3-(2-fluoro-6-hydroxyphenyl)-1-(4-(2-methoxyethyl)-3,3-dimethylpiperazin-1-yl)-6,6a,7,8,9,10-hexahydro-12H-pyrazino[2,1-c]pyrido[3,4-f][1,4]oxazepin-12-one], the IC50 in assay [2] is 0.007 µM. In the case of `C=CC(=O)N1CCN2C(=O)c3c(N4C[C@@H](O)CC4(C)C)nc(-c4c(F)ccc(F)c4O)c(F)c3OC[C@H]2C1` (single isomer, unassigned) [Z449-1], the values for the IC50 in assay [1] and in assay [2] were above 30 µM and 0.022 µM, respectively. `C=CC(=O)N1CCN2C(=O)c3c(N4CCN(C(C)=O)C(C)(C)C4)nc(-c4c(O)cccc4F)c(Cl)c3OC[C@H]2C1` [Z315, (6aR)-1-(4-acetyl-3,3-dimethylpiperazin-1-yl)-8-acryloyl-4-chloro-3-(2-fluoro-6-hydroxyphenyl)-6,6a,7,8,9,10-hexahydro-12H-pyrazino[2,1-c]pyrido[3,4-f][1,4]oxazepin-12-one]: the IC50 was above 30 µM in assay [1] and 0.0096 µM in assay [2].

For `C=CC(=O)N1CCN2C(=O)c3c(N4CC[C@H](OC)C4(C)C)nc(-c4c(O)cccc4F)c(F)c3OC[C@H]2C1` (single isomer, unassigned) [Z327-2], the figures for the IC50 in assay [1] and in assay [2] were 9.51 µM and 0.0162 µM, respectively. The corresponding values for `C=CC(=O)N1CCN2C(=O)c3c(N4CC(N(C)C5COC5)CC4(C)C)nc(-c4c(O)cccc4F)c(Cl)c3OC[C@H]2C1` (stereo partly drawn) [Z326, (6aR)-8-acryloyl-4-chloro-1-(2,2-dimethyl-4-(methyl(oxetan-3-yl)amino)pyrrolidin-1-yl)-3-(2-fluoro-6-hydroxyphenyl)-6,6a,7,8,9,10-hexahydro-12H-pyrazino[2,1-c]pyrido[3,4-f][1,4]oxazepin-12-one] are 8.84 µM and 0.0009 µM. The corresponding values for `C=CC(=O)N1CCN2C(=O)c3c(N4C[C@H](CO)CC4(C)C)nc(-c4c(O)cccc4F)c(Cl)c3OC[C@H]2C1` (single isomer, unassigned) [Z240-2] are above 10 µM and 0.0033 µM.

Consider `C=CC(=O)N1CCN2C(=O)c3c(N4Cc5cn(C)nc5C4(C)C)nc(-c4c(O)cccc4F)c(Cl)c3OC[C@H]2C1` [Z310, (6aR)-8-acryloyl-1-(2,6,6-trimethylpyrrolo[3,4-c]pyrazol-5(2H,4H,6H)-yl)-4-chloro-3-(2-fluoro-6-hydroxyphenyl)-6,6a,7,8,9,10-hexahydro-12H-pyrazino[2,1-c]pyrido[3,4-f][1,4]oxazepin-12-one], for which the IC50 in assay [2] came out at 0.026 µM.

`C=CC(=O)N1CCN2C(=O)c3c(N4C[C@H](OC)C[C@@H]4C)nc(-c4c(O)cccc4F)c(Cl)c3OC[C@H]2C1` [Z259a, (6aR)-8-acryloyl-4-chloro-3-(2-fluoro-6-hydroxyphenyl)-1-((2S,4R)-4-methoxy-2-methylpyrrolidin-1-yl)-6,6a,7,8,9,10-hexahydro-12H-pyrazino[2,1-c]pyrido[3,4-f][1,4]oxazepin-12-one]: the IC50 worked out at 9.12 µM in assay [1] and 0.0044 µM in assay [2].

In the case of `C=CC(=O)N1CCN2C(=O)c3c(N4CC[C@@H](OC)C4(C)C)nc(-c4c(O)cccc4F)c(Cl)c3OC[C@H]2C1` (single isomer, unassigned) [Z241a-2], the figures for the IC50 in assay [1] and in assay [2] were 3.04 µM and 0.0015 µM, respectively. The corresponding values for `C=CC(=O)N1CCN2C(=O)c3c(N4CC[C@H](N(C)C)C4(C)C)nc(-c4c(O)cccc4F)c(Cl)c3OC[C@H]2C1` (single isomer, unassigned) [Z360-2] are above 10 µM and 0.006 µM. Consider `C=CC(=O)N1CCN2C(=O)c3c(N4C[C@H](O)CC4(C)C)nc(-c4ccccc4F)c(Cl)c3OC[C@H]2C1` (single isomer, unassigned) [Z325-2], for which the IC50 in assay [1] was above 30 µM; in assay [2] it was 0.0155 µM. On to `C=CC(=O)N1CCN2C(=O)c3c(N4CC(C)(C)OC[C@@H]4C)nc(-c4c(O)cccc4F)c(Cl)c3OC[C@H]2C1` [Z276-1, (6aR)-8-acryloyl-4-chloro-3-(2-fluoro-6-hydroxyphenyl)-1-((S)-2,2,5-trimethylmorpholino)-6,6a,7,8,9,10-hexahydro-12H-pyrazino[2,1-c]pyrido[3,4-f][1,4]oxazepin-12-one], for which the IC50 in assay [1] was above 30 µM; in assay [2], 0.0149 µM.

With `C=CC(=O)N1CCN2C(=O)c3c(N4CCO[C@](C)(COC)C4)nc(-c4c(O)cccc4F)c(Cl)c3OC[C@H]2C1` (single isomer, unassigned) [Z332-1], the IC50 in assay [2] is 0.017 µM. Still for that read-out and setting: for `C=CC(=O)N1CCN2C(=O)c3c(N4CC(C)(O)CC4(C)C)nc(-c4c(O)cccc4F)c(Cl)c3OC[C@H]2C1` (stereo partly drawn) [Z243, (6aR)-8-acryloyl-4-chloro-3-(2-fluoro-6-hydroxyphenyl)-1-(4-hydroxy-2,2,4-trimethylpyrrolidin-1-yl)-6,6a,7,8,9,10-hexahydro-12H-pyrazino[2,1-c]pyrido[3,4-f][1,4]oxazepin-12-one] the value was 0.0042 µM. In the case of `C=CC(=O)N1CCN2C(=O)c3c(N4C[C@H](N5CCOCC5)CC4(C)C)nc(-c4c(O)cccc4F)c(Cl)c3OC[C@H]2C1` (single isomer, unassigned) [Z297-1], the IC50 came to 7 µM in assay [1] and 0.003 µM in assay [2].

`C=CC(=O)N1CCN2C(=O)c3c(N4CCN(CCOC)C[C@@H]4C)nc(-c4c(O)cccc4F)c(Cl)c3OC[C@H]2C1` [Z257a, (6aR)-8-acryloyl-4-chloro-3-(2-fluoro-6-hydroxyphenyl)-1-((S)-4-(2-methoxyethyl)-2-methylpiperazin-1-yl)-6,6a,7,8,9,10-hexahydro-12H-pyrazino[2,1-c]pyrido[3,4-f][1,4]oxazepin-12-one]: the IC50 was 28.2 µM in assay [1] and 0.009 µM in assay [2]. For `C=CC(=O)N1CCN2C(=O)c3c(N4C[C@@H](CO)CC4(C)C)nc(-c4c(O)cccc4F)c(Cl)c3OC[C@H]2C1` (single isomer, unassigned) [Z240-1] the same measures were 10.1 µM and 0.0037 µM. In the case of `C=CC(=O)N1CCN2C(=O)c3c(Nc4c(C(C)C)ncnc4C(C)C)nc(-c4c(O)cccc4F)c(Cl)c3OC[C@H]2C1` [Z15, (6aR)-8-acryloyl-4-chloro-1-((4,6-diisopropylpyrimidin-5-yl)amino)-3-(2-fluoro-6-hydroxyphenyl)-6,6a,7,8,9,10-hexahydro-12H-pyrazino[2,1-c]pyrido[3,4-f][1,4]oxazepin-12-one], the values for the IC50 in assay [1] and in assay [2] were 19 µM and 0.015 µM, respectively.

For `C=CC(=O)N1CCN2C(=O)c3c(N4CCN(C)[C@H](C)[C@@H]4C)nc(-c4c(O)cccc4F)c(Cl)c3OC[C@H]2C1` (single isomer, unassigned) [Z308a-1], the IC50 stood at 14.4 µM in assay [1] and 0.0078 µM in assay [2]. For the compound `C=CC(=O)N1CCN2C(=O)c3c(N4CC[C@@H]5C[C@@H]54)nc(-c4c(O)cccc4F)c(Cl)c3OC[C@H]2C1` (single isomer, unassigned) [Z39-2], in assay [2], the IC50 worked out at 0.013 µM. Still for that read-out and setting: for `C=CC(=O)N1CCN2C(=O)c3c(N4CCC(O)C4(C)C)nc(-c4c(O)cccc4F)c(Cl)c3OC[C@H]2C1` (stereo partly drawn) [Z241, (6aR)-8-acryloyl-1-(3-hydroxy-2,2-dimethylpyrrolidin-1-yl)-4-chloro-3-(2-fluoro-6-hydroxyphenyl)-6,6a,7,8,9,10-hexahydro-12H-pyrazino[2,1-c]pyrido[3,4-f][1,4]oxazepin-12-one] the value was 0.0049 µM.

For the compound `C=CC(=O)N1CCN2C(=O)c3c(N4CCN(C5COC5)C[C@@H]4C)nc(-c4c(O)cccc4F)c(Cl)c3OC[C@H]2C1` (single isomer, unassigned) [Z239-1], the IC50 in assay [2] is 0.02 µM. On the same count and under the same terms, the value for `C=CC(=O)N1CCN2C(=O)c3c(N4CC(OC)CC4(C)C)nc(-c4c(O)cccc4F)c(Cl)c3OC[C@H]2C1` (stereo partly drawn) [Z244, (6aR)-8-acryloyl-4-chloro-3-(2-fluoro-6-hydroxyphenyl)-1-(4-methoxy-2,2-dimethylpyrrolidin-1-yl)-12-oxo-6,6a,7,8,9,10-hexahydro-12H-pyrazino[2,1-c]pyrido[3,4-f][1,4]oxazepin-12-one] was 0.007 µM.

(Values after patent US20230203060A1 (GENFLEET THERAPEUTICS (SHANGHAI) INC., priority 2020, published 2023).)
